Assay results published in patent publication US20220296573A1, “NOVEL COMPOUNDS AND PHARMACEUTICAL COMPOSITIONS THEREOF FOR THE TREATMENT OF INFLAMMATORY DISORDERS” (Galapagos NV, priority 2019, published 2022).

Experiments:
Format in all cases: cell-based
[1] = system: LPS driven NFκB-reporter activity; assay: THP1-Lucia NFκB reporter assay, LPS trigger; details: THP-1-Lucia NFκB cells, LPS 2.5 ng/mL, 24 h; read-out: average pEC50, LPS driven NFκB-reporter activity (converted)
Text: (§1) This assay is used to evaluate the IRAK4 selectivity and potency of the compounds of the invention upon IRAK4 dependent (LPS and IL-1β) and independent triggering (TNFα), in a THP1-Lucia NFκB reporter assay.
(§2) THP-1-Lucia NFκB cells (Invivogen—5, rue Jean Rodier 31400 Toulouse France—cat #thp1-nfkb) were cultivated as recommended by the supplier using split cycles each cycle comprising a succession of thawing/expansion/seeding. The data reported were generated using cells having between 3 to 9 cycles. On the day of the experiment THP-1-Lucia NFκB cells were counted and seeded at a density of 1,000,000 cells/mL in culture medium (RPMI 1640 (Gibco, Cat #52400-025)+10% FBS (Sigma, Cat #F7524-500ML)+1% P/S (Gibco, Cat #15140-122)) by pipetting 54 μL/well in a 384 well plate. […]
(§3) For the readout, supernatant samples were thawed on ice and 5 μL sample was transferred from each well to a new 384-well plate. 20 μL of Quanti-Luc solution (Quanti-Luc powder (Invivogen, Cat #rep-qlc1) dissolved in 25 mL sterile water as indicated by the manufacturer) was added to each well after which luminescence was immediately measured on an Envision instrument.
(§4) To measure the inhibition of LPS/TNFα/IL-1β-induced NFκB-reporter activity, percentage inhibition (PIN) values were calculated for all concentrations tested, compared to controls. […]

[2] = system: IL-1β driven NFκB-reporter activity; assay: THP1-Lucia NFκB reporter assay, IL-1β trigger; details: THP-1-Lucia NFκB cells, IL-1β 3 ng/mL, 24 h; read-out: average pEC50, IL-1β driven NFκB-reporter activity (converted)
Text: as §1, §2, §3, §4

[3] = system: TNFα mediated NFκB-reporter activity; assay: THP1-Lucia NFκB reporter assay, TNFα trigger; details: THP-1-Lucia NFκB cells, TNFα 10 ng/mL, 24 h
Text: as §1, §2, §3, §4

EC50 [1]: 617 nM
EC50 [2]: 39.8 nM
SMILES: COc1cc2nc(C3COCCO3)cn2cc1NC(=O)c1cccn(C2CC2)c1=O (racemic) [Compound 1, 1-cyclopropyl-N-[2-(1,4-dioxan-2-yl)-7-methoxy-imidazo[1,2-a]pyridin-6-yl]-2-oxo-pyridine-3-carboxamide]
activity on TNFα mediated NFκB-reporter activity [3]: no activity was observed
